The term Km denotes the concentration of substrate that gives half-maximal velocity. As usually defined, the IC50 is the concentration needed to halve the response being measured.

Where a SMILES comes first, the peptide text is derived from it. The star is where a group is joined. pNA = O=[N+]([O-])c1ccc(N*)cc1

Experiment [1] relates to serum DPPIV (soluble 175 kDa form of DPPIV/CD26, DPPT-L) purified from normal human serum. Kind of experiment: DPPIV enzyme activity: Gly-Pro-pNA hydrolysis, Michaelis-Menten kinetics and inhibition. It counts as biochemical. Here is the method:
The DPPIV enzyme activities of the rsCD26 and serum DPPIV were analyzed by Michaelis-Menten kinetics by assessing kinetics of hydrolysis of substrate at different concentrations. […] To further exclude the possibility that we had purified irrelevant aminopeptidases which, working in concert or by sequential hydrolysis, could release the pNA chromophore from substrate, we tested a number of substrates which could be hydrolyzed by non-DPPIV aminopeptidases. One candidate for sequential hydrolysis is aminopeptidase M (3.4.11.2), but no hydrolysis of Ala-pNA, Arg-pNA or Leu-pNA was observed and activity by aminopolypeptidase (3.4.11.14) may be similarly excluded. The substrate succinyl-Gly-Pro-pNA was also not hydrolyzed. The only substrate apart from the dipeptide chromatogen Gly-Pro-pNA which could be hydrolyzed was Val-Ala-pNA, which was cleaved by both the serum DPPIV and rsCD26 (relative to rate of hydrolysis of Gly-Pro-pNA, hydrolysis of Val-Ala-pNA was 0.098 and 0.079, for rsCD26 and serum DPPIV, respectively). Although DPPIV primarily hydrolyses dipeptides with a proline in the penultimate position, it is well documented that alanine in the penultimate position may also render a dipeptide sequence susceptible to cleavage by DPPIV (8). […]
DPPIV activity: The primary substrate used for determining DPPIV activity in all assays was Gly-Pro-p-nitroanilide (Gly-Pro-pNA; Sigma), which is hydrolyzed by DPPIV to release pNA absorbing strongly at 405 nm. […] Inhibition of the hydrolysis of Gly-Pro-pNA was determined in the presence of the specific DPPIV inhibitor Diprotin A (Bachem, King of Prussia, Pa.). […] The pH optimum was determined substituting phosphate buffer (100 mM, pH4.5-pH9) in place of standard incubation buffer.
Serum DPPIV: Serum DPPIV was prepared by isolating from 100 ml of pooled normal human male AB serum the fraction of protein precipitated by 50-70% saturated ammonium sulfate. […] The DPPIV activity was eluted by a 0-0.5M NaCl gradient in equilibration buffer and all DPPIV activity was found in the 10 mM-50 mM NaCl eluate (determined by conductance). […]

For experiment [2], the target named is recombinant soluble CD26 (rsCD26), full extracellular domain of human T cell membrane CD26/DPPIV, 105 kDa form, from transfected CHO cells (Homo sapiens, UniProt P27487). The description is as above. Conditions: U = enzyme cleaving 1 mmol Gly-Pro-pNA/min at pH7.6 and 20° C.
Chain of recombinant soluble CD26 (rsCD26), full extracellular domain of human T cell membrane CD26/DPPIV, 105 kDa form, from transfected CHO cells (P27487 29-766 limits assumed): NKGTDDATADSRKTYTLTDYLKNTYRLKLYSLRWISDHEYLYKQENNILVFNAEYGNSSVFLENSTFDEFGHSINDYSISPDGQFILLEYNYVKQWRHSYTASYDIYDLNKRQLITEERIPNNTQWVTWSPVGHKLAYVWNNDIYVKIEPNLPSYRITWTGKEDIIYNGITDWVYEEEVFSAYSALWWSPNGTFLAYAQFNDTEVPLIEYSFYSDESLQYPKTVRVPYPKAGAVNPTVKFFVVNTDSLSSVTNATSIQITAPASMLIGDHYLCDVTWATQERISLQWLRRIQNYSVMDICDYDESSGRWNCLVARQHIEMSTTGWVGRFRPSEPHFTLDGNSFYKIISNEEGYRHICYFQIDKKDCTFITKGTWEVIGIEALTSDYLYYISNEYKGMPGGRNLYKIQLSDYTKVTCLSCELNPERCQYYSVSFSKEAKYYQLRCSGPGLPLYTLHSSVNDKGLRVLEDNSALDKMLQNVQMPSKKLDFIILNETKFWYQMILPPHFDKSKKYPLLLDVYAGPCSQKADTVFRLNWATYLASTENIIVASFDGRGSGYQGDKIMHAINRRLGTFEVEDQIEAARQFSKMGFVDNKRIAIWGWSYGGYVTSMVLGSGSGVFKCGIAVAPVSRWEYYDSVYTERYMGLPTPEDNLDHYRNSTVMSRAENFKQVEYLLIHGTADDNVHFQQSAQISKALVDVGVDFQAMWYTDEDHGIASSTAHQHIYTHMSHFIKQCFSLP
Protocol: DPPIV activity: The primary substrate used for determining DPPIV activity in all assays was Gly-Pro-p-nitroanilide (Gly-Pro-pNA; Sigma), which is hydrolyzed by DPPIV to release pNA absorbing strongly at 405 nm. Kinetic assays were performed using varying amounts of substrate in order to obtain estimates of the Km and Vmax using standard Michaelis-Menten kinetics. For screening assays of DPPIV activity, 150 ml of substrate was used at 1 mg/ml (2 mM final concentration) in phosphate buffer (pH7.6, 100 mM) in 96 well flat-bottomed microtiter plates together with 10 ml of appropriately diluted sample. For samples obtained after elution from the s-Sepharose column, the pH was raised to pH7.6 by addition of 25 μl of 1M Tris-HCl, pH7.6 to the reaction mixture. One unit (U) of enzyme activity was defined as the amount of enzyme that cleaved 1 mmol of Gly-Pro-pNA/min at pH7.6 and 20° C. […] The pH optimum was determined substituting phosphate buffer (100 mM, pH4.5-pH9) in place of standard incubation buffer.

As to `NCC(=O)N1CCC[C@H]1C(=O)Nc1ccc([N+](=O)[O-])cc1` [Gly-Pro-pNA, Gly-Pro-p-nitroanilide] (H-Gly-Pro-pNA), the Michaelis-Menten constant (Km) in experiment [1] (Lineweaver-Burke transformation, substrate at different concentrations) turned out to be 280 µM. The “Vmax, Gly-Pro-pNA as substrate” value was determined as 0.65 U/nmol serum DPPIV in experiment [1] (U = enzyme cleaving 1 mmol Gly-Pro-pNA/min at pH7.6 and 20° C.); 1.52 U/nmol rsCD26 in experiment [2].

`CC[C@H](C)[C@H](N)C(=O)N1CCC[C@H]1C(=O)N[C@H](C(=O)O)[C@@H](C)CC` [Diprotin A]: the IC50 in experiment [1] (read-out: IC50 (Diprotin A), inhibition of the hydrolysis of Gly-Pro-pNA) came out at 250 µM.

Values taken from patent publication US6265551A, “Form of dipeptidylpeptidase IV (CD26) found in human serum, antibodies thereto, and uses thereof” (Dana-Farber Cancer Institute, Inc., priority 1996, dated 2001).
